We go through 11 compounds from ChEMBL document CHEMBL1201862, “PubChem BioAssay data set” (2004).

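Interpolation was linear, between the two tested concentrations surrounding the appropriate level; five concentrations were tested over 48 hours in 96-well plates. GI50 is the concentration that inhibits growth by half.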 Active and inactive are the calls of the source. Cut-off read from the data, not from the text of the source: active = GI50 up to about 1.1 µM and inactive = higher.

Among the test systems are HCC 2998; HOP-92; MDA-MB-435; MOLT-4; Malme-3M; NCI-H23; NCI-H460; NCI/ADR-RES; OVCAR-8; SNB-19; SW-620; UACC-257; UACC-62; COLO 205; MDA-MB-231; SF-539; SK-MEL-28; A498; RXF 393; SNB-75.
What all share (assay): NCI-60 cell line screen, 48 h

As to `COc1ccc2c3c1O[C@H]1C(OC)C=CC4C(C2)N(Cc2cccs2)CCC341` (some centres undefined), the GI50 with HCC 2998 was > 100 µM (inactive); in the test on HOP-92 it was > 100 µM (inactive); in the test on MDA-MB-435, 41.5 µM (inactive); in the test on MOLT-4 it was > 100 µM (inactive); in the test with Malme-3M it was > 100 µM (inactive); with NCI-H23, 38.8 µM (inactive). Moreover, the GI50 in the test on NCI-H460 was > 100 µM (inactive); in the test with NCI/ADR-RES, 33.7 µM (inactive); in the test on OVCAR-8, 77.4 µM (inactive); in the test on SNB-19 it was > 100 µM (inactive); in the test on SW-620 it was > 100 µM (inactive); in the test with UACC-257 it was 44.4 µM (inactive). The GI50 in the test on UACC-62 was > 10 µM (inactive).

Take `Cc1ccc(Nc2c3c(c(C#N)c4nc5ccccc5n24)CCCC3)cc1`: the GI50 was 18.3 µM (inactive) in the test with COLO 205; 17.6 µM (inactive) in the test with HCC 2998; 17.1 µM (inactive) in the test with HOP-92; 22.5 µM (inactive) in the test on MDA-MB-231; 18.2 µM (inactive) in the test with MDA-MB-435; 3.73 µM (inactive) in the test on MOLT-4. For the same compound, the GI50 with Malme-3M is 30.7 µM (inactive); in the test with NCI-H23, 22.4 µM (inactive); with NCI-H460, 16.9 µM (inactive); in the test on NCI/ADR-RES, 21.3 µM (inactive); in the test on OVCAR-8, 18 µM (inactive); in the test with SF-539, 19.4 µM (inactive). The GI50 with SK-MEL-28 is 22.1 µM (inactive); in the test with SNB-19 it was 38.4 µM (inactive); in the test on SW-620, 15.4 µM (inactive); with UACC-257, 17.7 µM (inactive); with UACC-62, 14.7 µM (inactive).

As for `CC(=O)Nc1ccc(NC(=O)c2c(Cl)c(Cl)c(Cl)c(Cl)c2-c2nc3ccccc3[nH]2)cc1`, the GI50 in the test on A498 is 35 µM (inactive); in the test with COLO 205 it was 17.6 µM (inactive); with HCC 2998, 33.6 µM (inactive); with HOP-92 it was 15.7 µM (inactive); in the test with MDA-MB-435, 35.1 µM (inactive); in the test with MOLT-4, 21.5 µM (inactive). In addition, the GI50 in the test on Malme-3M is 51.4 µM (inactive); with NCI-H23 it was 32.5 µM (inactive); with NCI-H460, 24.7 µM (inactive); with OVCAR-8, 45.1 µM (inactive); in the test on RXF 393, 29.4 µM (inactive); in the test on SF-539, 38.5 µM (inactive). Further, the GI50 with SK-MEL-28 was 40.2 µM (inactive); with SNB-19, 54.2 µM (inactive); in the test on SNB-75 it was 73.3 µM (inactive); in the test on SW-620 it was 48.5 µM (inactive); in the test with UACC-257 it was 40.1 µM (inactive); in the test with UACC-62 it was 27.8 µM (inactive).

Regarding `N=C1OC(c2cccc(Cl)c2)C(NNS(=O)(=O)c2ccccc2)=C1O` (centres undefined), the GI50 was > 100 µM (inactive) with A498; 13.2 µM (inactive) with COLO 205; 36.4 µM (inactive) in the test with HCC 2998; 23.6 µM (inactive) in the test with HOP-92; 18.2 µM (inactive) in the test on MDA-MB-231; 33 µM (inactive) with MDA-MB-435. The GI50 with MOLT-4 was 4.11 µM (inactive); in the test on Malme-3M, 22.4 µM (inactive); with NCI-H23, 25.8 µM (inactive); in the test on NCI-H460, 44.1 µM (inactive); in the test on OVCAR-8 it was 30.5 µM (inactive); with RXF 393, 15.7 µM (inactive). The GI50 was 33.4 µM (inactive) in the test with SF-539; 20.9 µM (inactive) with SK-MEL-28; 55.5 µM (inactive) in the test on SNB-19; 26.9 µM (inactive) with SNB-75; 12.8 µM (inactive) in the test on SW-620; 33.3 µM (inactive) in the test with UACC-257. Further, in the test with UACC-62, the GI50 was 24.9 µM (inactive).

As for `O=C1c2ccccc2C(=O)c2sc(Nc3ccc(Cl)c(Cl)c3)nc21`, the GI50 is 16.6 µM (inactive) in the test on A498; 8 µM (inactive) with COLO 205; 15.3 µM (inactive) in the test on HCC 2998; 13.3 µM (inactive) in the test on HOP-92; 2.17 µM (inactive) in the test on MDA-MB-231; 1.02 µM (active) in the test on MOLT-4. Moreover, the GI50 is 4.16 µM (inactive) in the test on Malme-3M; 2.31 µM (inactive) in the test with NCI-H23; 12.5 µM (inactive) in the test with NCI-H460; 3.7 µM (inactive) with OVCAR-8; 7.4 µM (inactive) with RXF 393; 4.38 µM (inactive) with SF-539. Further, the GI50 was 7.35 µM (inactive) in the test on SK-MEL-28; 6.04 µM (inactive) in the test with SNB-19; 8.05 µM (inactive) with SNB-75; 1.61 µM (inactive) with SW-620; 4.01 µM (inactive) in the test on UACC-257; 2.59 µM (inactive) in the test on UACC-62.

With `CC(=O)OC1CC[C@@]2(C)C(CC[C@]3(C)C2CC=C2[C@@H]4CC(C)(C)CCC4(C)CCC23C)[C@@]1(C)C(=O)O` (some centres undefined), the GI50 in the test on A498 is 19.2 µM (inactive); with COLO 205, 19.1 µM (inactive); in the test with HCC 2998, 14.5 µM (inactive); in the test on HOP-92 it was 20.4 µM (inactive); in the test with MDA-MB-231, 20.9 µM (inactive); with MDA-MB-435, 15.2 µM (inactive). In addition, the GI50 is 17.6 µM (inactive) in the test with MOLT-4; 21.4 µM (inactive) with Malme-3M; 11.4 µM (inactive) in the test with NCI-H23; 10.7 µM (inactive) in the test with NCI-H460; 14 µM (inactive) in the test on OVCAR-8; 16.6 µM (inactive) in the test with RXF 393. Moreover, the GI50 in the test on SF-539 was 19.9 µM (inactive); with SK-MEL-28 it was 21.2 µM (inactive); in the test with SNB-19, 18.9 µM (inactive); in the test on SNB-75, 23 µM (inactive); in the test on SW-620, 13.5 µM (inactive); with UACC-257 it was 19.9 µM (inactive). Also, in the test on UACC-62, the GI50 is 15.4 µM (inactive).

For `C=C(C)[C@H](O)C(O)CC(C)[C@@H]1CCC23CC12CCC1[C@@]2(C)CCC(OC(C)=O)C(C)(C)C2CC(OC2OC(COC(C)=O)C(O)C(O)C2O)[C@]13C` (some centres undefined), the GI50 in the test on A498 was 7.98 µM (inactive); in the test on COLO 205 it was 6.61 µM (inactive); in the test with HCC 2998, 6.35 µM (inactive); in the test with HOP-92, 5.37 µM (inactive); with MOLT-4, 2.34 µM (inactive); with Malme-3M, 7.91 µM (inactive). The GI50 is 7.59 µM (inactive) in the test on NCI-H23; 4.78 µM (inactive) in the test on NCI-H460; 6.47 µM (inactive) in the test on OVCAR-8; 2.9 µM (inactive) with RXF 393; 6.67 µM (inactive) with SF-539; 7.19 µM (inactive) in the test with SK-MEL-28. Besides, the GI50 was 5.9 µM (inactive) in the test with SNB-19; 3.4 µM (inactive) in the test with SNB-75; 6.14 µM (inactive) in the test with SW-620; 6.01 µM (inactive) with UACC-257; 3.84 µM (inactive) with UACC-62.

As for `Cc1cnoc1/N=C1\C=C(Nc2oncc2C)C(=O)c2ccccc21`, the GI50 with A498, in the test with COLO 205, with HCC 2998, in the test on HOP-92, in the test with MOLT-4 and in the test with Malme-3M was > 100 µM (inactive) in each case. In addition, the GI50 in the test with NCI-H23 was 60.5 µM (inactive); in the test with NCI-H460, > 100 µM (inactive); in the test on OVCAR-8 it was 30.8 µM (inactive); in the test with RXF 393, > 100 µM (inactive); in the test with SF-539 it was > 100 µM (inactive); with SK-MEL-28, > 100 µM (inactive). Besides, the GI50 in the test on SNB-19 was > 100 µM (inactive); in the test with SNB-75 it was > 100 µM (inactive); in the test on SW-620 it was > 100 µM (inactive); with UACC-257 it was 65.6 µM (inactive); in the test on UACC-62, 48.3 µM (inactive).

Take `O=C1c2cccc3cc([N+](=O)[O-])cc(c23)C(=O)N1NC1=NCCN1`: the GI50 in the test on A498, in the test on COLO 205, with HCC 2998, in the test on HOP-92, with MOLT-4 and in the test with Malme-3M was > 100 µM (inactive) in each case. The GI50 with NCI-H23, in the test with NCI-H460, in the test with OVCAR-8, in the test on RXF 393, in the test with SF-539 and in the test with SK-MEL-28 was > 100 µM (inactive) throughout. The GI50 in the test with SNB-19, in the test with SNB-75, in the test with SW-620, in the test with UACC-257 and with UACC-62 was > 100 µM (inactive) throughout.

For `CC(C)(C)c1cc(-c2c3nc(c(-c4cc(C(C)(C)C)cc(C(C)(C)C)c4)c4ccc([nH]4)c(-c4cc(C(C)(C)C)cc(C(C)(C)C)c4)c4nc(c(-c5cc(C(C)(C)C)cc(C(C)(C)C)c5)c5ccc2[nH]5)C=C4)C=C3)cc(C(C)(C)C)c1`, the GI50 with A498, in the test on COLO 205, in the test on HCC 2998, in the test on HOP-92, in the test on MOLT-4 and in the test with Malme-3M was > 100 µM (inactive) throughout. Also, the GI50 with NCI-H23, in the test with NCI-H460, in the test with OVCAR-8, in the test on RXF 393, in the test on SF-539 and in the test with SK-MEL-28 was > 100 µM (inactive) each time. The GI50 in the test on SNB-19, with SNB-75, in the test with SW-620, with UACC-257 and in the test with UACC-62 was > 100 µM (inactive) each time.

Consider `O=C(Nc1ccc(Cl)cc1)NS(=O)(=O)c1ccc2c(c1)CCC2` [SULOFENUR], for which the GI50 was 45 µM (inactive) in the test with A498; 29.8 µM (inactive) in the test on COLO 205; 31.6 µM (inactive) in the test on HCC 2998; 17.6 µM (inactive) with MDA-MB-435; 26.4 µM (inactive) in the test on MOLT-4; 24.5 µM (inactive) with Malme-3M. The GI50 was 28.1 µM (inactive) in the test on NCI-H23; 24.4 µM (inactive) in the test with NCI-H460; 40.8 µM (inactive) in the test with OVCAR-8; 27.9 µM (inactive) in the test on RXF 393; 28.3 µM (inactive) in the test with SF-539; 43.9 µM (inactive) in the test on SK-MEL-28. In addition, the GI50 in the test on SNB-19 was 40.9 µM (inactive); in the test with SNB-75, > 55.6 µM (inactive); in the test on SW-620, 35.3 µM (inactive); with UACC-257, 50.7 µM (inactive); in the test with UACC-62, 23.9 µM (inactive).
